# Source: US8969325B2, “TRPV1 antagonists” (AbbVie Inc., priority 2011, dated 2015)
# Experiments:
# human TRPV1 [1] = target: T1, human TRPV1 (Homo sapiens (Human), UniProt Q8NER1); assay: Capsaicin Activation Assay (intracellular Ca2+, FLIPR); assay type: cell-based; conditions: recombinant HEK293 cells expressing hTRPV1, 50 nM capsaicin
# Summary of the method: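 Ca2+ fluorescence was recorded by FLIPR every 1 to 5 seconds in HEK293 cells, clonally selected for stable human TRPV1 expression and plated one day ahead. Test compounds came as serial dilutions of 10 mM DMSO stocks.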
# human TRPV1 [2] = target: T1, human TRPV1; assay: Acid Activation Assay (pH 5.0, intracellular Ca2+, FLIPR); assay type: cell-based; conditions: percentage of the maximal pH 5.0-induced response remaining; recombinant HEK293 hTRPV1 cells; maximum concentration tested 37.5 μM
# Summary of the method: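 Readout: peak [Ca2+]i fluorescence over baseline on FLIPR, expressed as percentage remaining of the maximal pH 5.0-evoked signal. Stable hTRPV1-HEK293 cells with Calcium-4 dye received compound (12 half-log concentrations, maximum 37.5 μM) 3 min before acidic pH 5.0 buffer.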
# T1 sequence (Q8NER1 whole entry): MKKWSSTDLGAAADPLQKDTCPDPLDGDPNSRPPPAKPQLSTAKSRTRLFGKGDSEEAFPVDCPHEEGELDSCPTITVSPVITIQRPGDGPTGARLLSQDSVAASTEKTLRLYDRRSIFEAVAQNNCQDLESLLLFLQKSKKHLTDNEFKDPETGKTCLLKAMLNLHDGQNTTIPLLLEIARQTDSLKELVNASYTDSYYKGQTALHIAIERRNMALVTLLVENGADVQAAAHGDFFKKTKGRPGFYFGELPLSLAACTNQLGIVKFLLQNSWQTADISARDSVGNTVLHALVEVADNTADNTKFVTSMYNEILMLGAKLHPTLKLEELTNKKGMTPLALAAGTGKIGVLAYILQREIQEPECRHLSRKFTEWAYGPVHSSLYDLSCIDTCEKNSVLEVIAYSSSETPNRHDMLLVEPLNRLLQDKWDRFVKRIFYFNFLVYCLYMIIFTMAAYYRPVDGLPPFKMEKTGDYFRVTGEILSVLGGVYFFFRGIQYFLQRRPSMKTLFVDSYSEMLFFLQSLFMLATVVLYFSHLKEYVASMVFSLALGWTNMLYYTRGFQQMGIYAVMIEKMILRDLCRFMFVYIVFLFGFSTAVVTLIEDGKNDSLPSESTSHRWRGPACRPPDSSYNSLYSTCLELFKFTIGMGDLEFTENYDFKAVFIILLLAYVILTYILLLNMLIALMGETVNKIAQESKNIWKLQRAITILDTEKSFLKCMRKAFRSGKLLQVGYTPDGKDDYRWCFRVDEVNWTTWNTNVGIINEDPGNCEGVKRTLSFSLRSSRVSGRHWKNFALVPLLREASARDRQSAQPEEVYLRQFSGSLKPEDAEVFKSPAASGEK
IC50 (human TRPV1 [1]),human TRPV1 H^+ (max % remain) (human TRPV1 [2]),Structure (SMILES)
610 nM,2%,"CC1(C)C[C@@H](NC(=O)Nc2ccc3c(c2)NC(=O)C(N2CCCOCC2)C3)c2ccc(F)cc2O1 (stereo partly drawn) [Example 303, 1-[(4R)-7-fluoro-2,2-dimethyl-3,4-dihydro-2H-chromen-4-yl]-3-[3-(1,4-oxazepan-4-yl)-2-oxo-1,2,3,4-tetrahydroquinolin-7-yl]urea]"
230 nM,0%,"CN(CCO)C1Cc2ccc(NC(=O)N[C@@H]3CC(CF)(CF)Oc4cc(Cl)ccc43)cc2NC1=O (stereo partly drawn) [Example 304, 1-[(4R)-7-chloro-2,2-bis(fluoromethyl)-3,4-dihydro-2H-chromen-4-yl]-3-{3-[(2-hydroxyethyl)(methyl)amino]-2-oxo-1,2,3,4-tetrahydroquinolin-7-yl}urea]"
2000 nM,26%,"COCCN(C)C1Cc2ccc(NC(=O)N[C@@H]3CC(C)(C)Oc4cc(F)ccc43)cc2NC1=O (stereo partly drawn) [Example 305, 1-[(4R)-7-fluoro-2,2-dimethyl-3,4-dihydro-2H-chromen-4-yl]-3-{3-[(2-methoxyethyl)(methyl)amino]-2-oxo-1,2,3,4-tetrahydroquinolin-7-yl}urea]"
440 nM,31%,"COCCN(C)C1Cc2ccc(NC(=O)N[C@@H]3CC(CF)(CF)Oc4cc(Cl)ccc43)cc2NC1=O (stereo partly drawn) [Example 306, 1-[(4R)-7-chloro-2,2-bis(fluoromethyl)-3,4-dihydro-2H-chromen-4-yl]-3-{3-[(2-methoxyethyl)(methyl)amino]-2-oxo-1,2,3,4-tetrahydroquinolin-7-yl}urea]"
1300 nM,37%,"CC1(C)C[C@@H](NC(=O)Nc2ccc3c(c2)NC(=O)N(CCO)C3)c2cccc(C(F)(F)F)c2O1 [Example 307, 1-[(4R)-2,2-dimethyl-8-(trifluoromethyl)-3,4-dihydro-2H-chromen-4-yl]-3-[3-(2-hydroxyethyl)-2-oxo-1,2,3,4-tetrahydroquinazolin-7-yl]urea]"
68 nM,3%,"O=C(Nc1ccc2c(c1)NC(=O)N(CCO)C2)N[C@@H]1CCOc2ccccc21 [Example 308, 1-[(4R)-3,4-dihydro-2H-chromen-4-yl]-3-[3-(2-hydroxyethyl)-2-oxo-1,2,3,4-tetrahydroquinazolin-7-yl]urea]"
18000 nM,36%,"O=C(Nc1ccc2c(c1)NC(=O)N(CCO)C2)N[C@@H]1CC(CF)(CF)Oc2cc(C(F)(F)F)ccc21 [Example 309, 1-[(4R)-2,2-bis(fluoromethyl)-7-(trifluoromethyl)-3,4-dihydro-2H-chromen-4-yl]-3-[3-(2-hydroxyethyl)-2-oxo-1,2,3,4-tetrahydroquinazolin-7-yl]urea]"
190 nM,2%,"CCCC1(CCC)C[C@@H](NC(=O)Nc2ccc3c(c2)NC(=O)N(CCO)C3)c2cc(F)ccc2O1 [Example 310, 1-[(4R)-6-fluoro-2,2-dipropyl-3,4-dihydro-2H-chromen-4-yl]-3-[3-(2-hydroxyethyl)-2-oxo-1,2,3,4-tetrahydroquinazolin-7-yl]urea]"
150 nM,14%,"CCCC1(CCC)C[C@@H](NC(=O)Nc2ccc3c(c2)NC(=O)N(CCO)C3)c2cccc(F)c2O1 [Example 311, 1-[(4R)-8-fluoro-2,2-dipropyl-3,4-dihydro-2H-chromen-4-yl]-3-[3-(2-hydroxyethyl)-2-oxo-1,2,3,4-tetrahydroquinazolin-7-yl]urea]"
200 nM,36%,"CC1(C)C[C@@H](NC(=O)Nc2ccc3c(c2)NC(=O)N(CCO)C3)c2ccc(F)c(Cl)c2O1 [Example 312, 1-[(4R)-8-chloro-7-fluoro-2,2-dimethyl-3,4-dihydro-2H-chromen-4-yl]-3-[3-(2-hydroxyethyl)-2-oxo-1,2,3,4-tetrahydroquinazolin-7-yl]urea]"
76 nM,4%,"CC1(C)C[C@@H](NC(=O)Nc2ccc3c(c2)NC(=O)N(CCO)C3)c2ccc(Cl)cc2O1 [Example 313, 1-[(4R)-7-chloro-2,2-dimethyl-3,4-dihydro-2H-chromen-4-yl]-3-[3-(2-hydroxyethyl)-2-oxo-1,2,3,4-tetrahydroquinazolin-7-yl]urea]"
57 nM,0%,"O=C(Nc1ccc2c(c1)NC(=O)N(CCO)C2)N[C@@H]1CC(CF)(CF)Oc2ccccc21 [Example 314, 1-[(4R)-2,2-bis(fluoromethyl)-3,4-dihydro-2H-chromen-4-yl]-3-[3-(2-hydroxyethyl)-2-oxo-1,2,3,4-tetrahydroquinazolin-7-yl]urea]"
830 nM,18%,"O=C(Nc1ccc2c(c1)NC(=O)N(CCO)C2)N[C@@H]1CC(CF)(CF)Oc2c(F)cccc21 [Example 315, 1-[(4R)-8-fluoro-2,2-bis(fluoromethyl)-3,4-dihydro-2H-chromen-4-yl]-3-[3-(2-hydroxyethyl)-2-oxo-1,2,3,4-tetrahydroquinazolin-7-yl]urea]"
1900 nM,20%,"O=C(Nc1ccc2c(c1)NC(=O)N(CCO)C2)N[C@@H]1CC(CF)(CF)Oc2cc(Cl)ccc21 [Example 316, 1-[(4R)-7-chloro-2,2-bis(fluoromethyl)-3,4-dihydro-2H-chromen-4-yl]-3-[3-(2-hydroxyethyl)-2-oxo-1,2,3,4-tetrahydroquinazolin-7-yl]urea]"
600 nM,17%,"O=C(Nc1ccc2c(c1)NC(=O)N(CCO)C2)N[C@@H]1CC2(CCCC2)Oc2ccccc21 [Example 317, 1-[(4R)-3,4-dihydrospiro[chromene-2,1′-cyclopentan]-4-yl]-3-[3-(2-hydroxyethyl)-2-oxo-1,2,3,4-tetrahydroquinazolin-7-yl]urea]"
590 nM,14%,"C[C@@]1(C(F)F)C[C@@H](NC(=O)Nc2ccc3c(c2)NC(=O)N(CCO)C3)c2ccccc2O1 [Example 318, 1-[(2S,4R)-2-(difluoromethyl)-2-methyl-3,4-dihydro-2H-chromen-4-yl]-3-[3-(2-hydroxyethyl)-2-oxo-1,2,3,4-tetrahydroquinazolin-7-yl]urea]"
5000 nM,21%,"O=C(Nc1ccc2c(c1)NC(=O)N(CCO)C2)N[C@@H]1CC(CF)(CF)Oc2cc(F)ccc21 [Example 319, 1-[(4R)-7-fluoro-2,2-bis(fluoromethyl)-3,4-dihydro-2H-chromen-4-yl]-3-[3-(2-hydroxyethyl)-2-oxo-1,2,3,4-tetrahydroquinazolin-7-yl]urea]"
12 nM,80%,"O=C1CCc2ccc(NC(=O)N[C@@H]3CC(CF)(CF)Oc4cc(C(F)(F)F)ccc43)cc2N1 [Example 320, 1-[(4R)-2,2-bis(fluoromethyl)-7-(trifluoromethyl)-3,4-dihydro-2H-chromen-4-yl]-3-(2-oxo-1,2,3,4-tetrahydroquinolin-7-yl)urea]"
46 nM,76%,"C[C@@]1(C(F)F)C[C@@H](NC(=O)Nc2ccc3c(c2)NC(=O)CO3)c2ccc(Cl)cc2O1 [Example 322, 1-[(2S,4R)-7-chloro-2-(difluoromethyl)-2-methyl-3,4-dihydro-2H-chromen-4-yl]-3-(3-oxo-3,4-dihydro-2H-1,4-benzoxazin-6-yl)urea]"
